Source: PubChem BioAssay AID652214 (Broad Institute, 2013)
Activity calls are given as the source filed them.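 Rule for the calls: active = AC50 of 30 µM or below; inactive = AC50 above 30 µM.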

Target: Thioredoxin (Homo sapiens) (UniProt P10599)
Assay: TRX disulfide reduction blockade – biochemical, insulin turbidity, dry powder samples, counter-screen for PDI inhibitor project, dose response (AID 652214)
Details: purified thioredoxin, insulin reduction turbidity OD650

Sequence of Thioredoxin (Homo sapiens) (P10599 whole entry, looked up): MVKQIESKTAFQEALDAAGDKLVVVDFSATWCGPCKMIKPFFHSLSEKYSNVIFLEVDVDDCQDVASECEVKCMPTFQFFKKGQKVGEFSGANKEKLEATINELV

SMILES | AC50
O=C(Nc1ccccc1)C1(CCOc2ccccc2)CCN(Cc2ccc(O)c(Cl)c2)CC1 | > 30 µM (inactive)
O=C(NC1CCCC1)C1(CCOc2ccccc2)CCN(Cc2ccc(O)c(Cl)c2)CC1 | > 30 µM (inactive)
CCOC(=O)c1c(CN2CCN(CCO)CC2)n(-c2ccccc2)c2cc(Br)c(O)cc12 | > 30 µM (inactive)
CCOC(=O)C1(CCOc2ccccc2)CCN(Cc2ccc(OC)c(Cl)c2)CC1 | > 30 µM (inactive)
CCOC(=O)C1(CCOc2ccccc2)CCN(Cc2ccc(O)c(Cl)c2)CC1 | > 30 µM (inactive)
CCN(C)C(=O)C1(CCOc2ccccc2)CCN(Cc2ccc(O)c(Cl)c2)CC1 | > 30 µM (inactive)
CC(C)OC(=O)C1(CCOc2ccccc2)CCN(Cc2ccc(O)c(Cl)c2)CC1 | > 30 µM (inactive)

Further lines, results first:

AC50 | SMILES
> 30 µM (inactive) | CC(C)(C)OC(=O)C1(CCOc2ccccc2)CCN(Cc2ccc(O)c(Cl)c2)CC1
3 µM | C/C1=C\[C@@H](O)C(C)(C)CCCC2(C)OC2C[C@@H]1OC(=O)c1ccc(O)cc1 (some centres not stated)
> 30 µM (inactive) | CCOC(=O)C1(CCOc2ccccc2)CCN(Cc2ccc(O)cc2)CC1
> 30 µM (inactive) | CCOC(=O)C1(CCOc2ccccc2)CCN(C(=O)c2ccc(O)c(Cl)c2)CC1
> 30 µM (inactive) | C/C1=C\C[C@H](OC(=O)c2ccc(O)cc2)/C(C)=C/[C@@H](O)C(C)(C)CCC1
